The source of these data is the OligoGym collection.

Oligonucleotides are given in HELM: sugar(base)linkage, 5' to 3'; d 2'-deoxyribose, r ribose, m 2'-O-methylribose, p phosphate. ss, as = sense and antisense strand
Also: test concentration or dose not given here.

This data set has as its target Mmp7 (rat). Description: reporter assay of Huesken 2005. The settings on record: siRNA.
Take “RNA1{r(G)p.r(U)p.r(C)p.r(A)p.r(U)p.r(G)p.r(G)p.r(A)p.r(G)p.r(A)p.r(U)p.r(A)p.r(A)p.r(U)p.r(G)p.r(C)p.r(A)p.r(G)p.r(A)p.d(T)p.d(T)}|RNA2{r(U)p.r(C)p.r(U)p.r(G)p.r(C)p.r(A)p.r(U)p.r(U)p.r(A)p.r(U)p.r(C)p.r(U)p.r(C)p.r(C)p.r(A)p.r(U)p.r(G)p.r(A)p.r(C)p.d(A)p.d(C)}$$$RNA1{StrandType:ss}|RNA2{StrandType:as}$”: the normalised inhibition (eCFP-eYFP dual reporter) is 115%.
The result for “RNA1{r(G)p.r(C)p.r(U)p.r(U)p.r(C)p.r(G)p.r(C)p.r(A)p.r(A)p.r(G)p.r(G)p.r(G)p.r(G)p.r(A)p.r(G)p.r(A)p.r(U)p.r(C)p.r(A)p.d(T)p.d(T)}|RNA2{r(U)p.r(G)p.r(A)p.r(U)p.r(C)p.r(U)p.r(C)p.r(C)p.r(C)p.r(C)p.r(U)p.r(U)p.r(G)p.r(C)p.r(G)p.r(A)p.r(A)p.r(G)p.r(C)p.d(C)p.d(A)}$$$RNA1{StrandType:ss}|RNA2{StrandType:as}$” reads 105%.
“RNA1{r(G)p.r(A)p.r(A)p.r(C)p.r(U)p.r(U)p.r(C)p.r(C)p.r(U)p.r(G)p.r(U)p.r(U)p.r(U)p.r(G)p.r(U)p.r(U)p.r(G)p.r(C)p.r(C)p.d(T)p.d(T)}|RNA2{r(G)p.r(G)p.r(C)p.r(A)p.r(A)p.r(C)p.r(A)p.r(A)p.r(A)p.r(C)p.r(A)p.r(G)p.r(G)p.r(A)p.r(A)p.r(G)p.r(U)p.r(U)p.r(C)p.d(A)p.d(C)}$$$RNA1{StrandType:ss}|RNA2{StrandType:as}$”: the normalised inhibition (eCFP-eYFP dual reporter) was determined as 53.6%.
The value for “RNA1{r(U)p.r(C)p.r(A)p.r(A)p.r(G)p.r(A)p.r(G)p.r(G)p.r(G)p.r(U)p.r(U)p.r(A)p.r(G)p.r(U)p.r(U)p.r(G)p.r(G)p.r(G)p.r(G)p.d(T)p.d(T)}|RNA2{r(C)p.r(C)p.r(C)p.r(C)p.r(A)p.r(A)p.r(C)p.r(U)p.r(A)p.r(A)p.r(C)p.r(C)p.r(C)p.r(U)p.r(C)p.r(U)p.r(U)p.r(G)p.r(A)p.d(A)p.d(G)}$$$RNA1{StrandType:ss}|RNA2{StrandType:as}$” was 40.8%; that for “RNA1{r(A)p.r(C)p.r(U)p.r(U)p.r(C)p.r(A)p.r(G)p.r(U)p.r(C)p.r(U)p.r(U)p.r(A)p.r(C)p.r(A)p.r(A)p.r(A)p.r(G)p.r(G)p.r(A)p.d(T)p.d(T)}|RNA2{r(U)p.r(C)p.r(C)p.r(U)p.r(U)p.r(U)p.r(G)p.r(U)p.r(A)p.r(A)p.r(G)p.r(A)p.r(C)p.r(U)p.r(G)p.r(A)p.r(A)p.r(G)p.r(U)p.d(C)p.d(T)}$$$RNA1{StrandType:ss}|RNA2{StrandType:as}$” was 112%; that for “RNA1{r(G)p.r(C)p.r(A)p.r(G)p.r(A)p.r(A)p.r(U)p.r(U)p.r(C)p.r(U)p.r(C)p.r(A)p.r(C)p.r(U)p.r(A)p.r(A)p.r(U)p.r(G)p.r(C)p.d(T)p.d(T)}|RNA2{r(G)p.r(C)p.r(A)p.r(U)p.r(U)p.r(A)p.r(G)p.r(U)p.r(G)p.r(A)p.r(G)p.r(A)p.r(A)p.r(U)p.r(U)p.r(C)p.r(U)p.r(G)p.r(C)p.d(A)p.d(A)}$$$RNA1{StrandType:ss}|RNA2{StrandType:as}$” was 94.3%.
The value for “RNA1{r(G)p.r(U)p.r(U)p.r(G)p.r(C)p.r(A)p.r(G)p.r(A)p.r(A)p.r(U)p.r(U)p.r(C)p.r(U)p.r(C)p.r(A)p.r(C)p.r(U)p.r(A)p.r(A)p.d(T)p.d(T)}|RNA2{r(U)p.r(U)p.r(A)p.r(G)p.r(U)p.r(G)p.r(A)p.r(G)p.r(A)p.r(A)p.r(U)p.r(U)p.r(C)p.r(U)p.r(G)p.r(C)p.r(A)p.r(A)p.r(C)p.d(A)p.d(T)}$$$RNA1{StrandType:ss}|RNA2{StrandType:as}$” was 122%; that for “RNA1{r(G)p.r(A)p.r(C)p.r(U)p.r(U)p.r(C)p.r(A)p.r(G)p.r(U)p.r(C)p.r(U)p.r(U)p.r(A)p.r(C)p.r(A)p.r(A)p.r(A)p.r(G)p.r(G)p.d(T)p.d(T)}|RNA2{r(C)p.r(C)p.r(U)p.r(U)p.r(U)p.r(G)p.r(U)p.r(A)p.r(A)p.r(G)p.r(A)p.r(C)p.r(U)p.r(G)p.r(A)p.r(A)p.r(G)p.r(U)p.r(C)p.d(T)p.d(T)}$$$RNA1{StrandType:ss}|RNA2{StrandType:as}$” was 92.9%.
The result for “RNA1{r(G)p.r(U)p.r(C)p.r(C)p.r(U)p.r(A)p.r(A)p.r(G)p.r(U)p.r(G)p.r(G)p.r(C)p.r(A)p.r(U)p.r(U)p.r(C)p.r(C)p.r(A)p.r(G)p.d(T)p.d(T)}|RNA2{r(C)p.r(U)p.r(G)p.r(G)p.r(A)p.r(A)p.r(U)p.r(G)p.r(C)p.r(C)p.r(A)p.r(C)p.r(U)p.r(U)p.r(A)p.r(G)p.r(G)p.r(A)p.r(C)p.d(T)p.d(G)}$$$RNA1{StrandType:ss}|RNA2{StrandType:as}$” reads 110%.
On to “RNA1{r(U)p.r(G)p.r(G)p.r(A)p.r(C)p.r(G)p.r(G)p.r(A)p.r(U)p.r(G)p.r(G)p.r(U)p.r(G)p.r(A)p.r(G)p.r(G)p.r(A)p.r(C)p.r(U)p.d(T)p.d(T)}|RNA2{r(A)p.r(G)p.r(U)p.r(C)p.r(C)p.r(U)p.r(C)p.r(A)p.r(C)p.r(C)p.r(A)p.r(U)p.r(C)p.r(C)p.r(G)p.r(U)p.r(C)p.r(C)p.r(A)p.d(G)p.d(T)}$$$RNA1{StrandType:ss}|RNA2{StrandType:as}$”, for which the normalised inhibition (eCFP-eYFP dual reporter) was 52.5%.
The result for “RNA1{r(C)p.r(A)p.r(G)p.r(A)p.r(C)p.r(A)p.r(U)p.r(C)p.r(A)p.r(U)p.r(A)p.r(A)p.r(U)p.r(U)p.r(G)p.r(G)p.r(C)p.r(U)p.r(U)p.d(T)p.d(T)}|RNA2{r(A)p.r(A)p.r(G)p.r(C)p.r(C)p.r(A)p.r(A)p.r(U)p.r(U)p.r(A)p.r(U)p.r(G)p.r(A)p.r(U)p.r(G)p.r(U)p.r(C)p.r(U)p.r(G)p.d(C)p.d(A)}$$$RNA1{StrandType:ss}|RNA2{StrandType:as}$” reads 103%; that for “RNA1{r(A)p.r(C)p.r(C)p.r(G)p.r(G)p.r(G)p.r(G)p.r(C)p.r(C)p.r(A)p.r(G)p.r(G)p.r(C)p.r(C)p.r(U)p.r(C)p.r(G)p.r(G)p.r(C)p.d(T)p.d(T)}|RNA2{r(G)p.r(C)p.r(C)p.r(G)p.r(A)p.r(G)p.r(G)p.r(C)p.r(C)p.r(U)p.r(G)p.r(G)p.r(C)p.r(C)p.r(C)p.r(C)p.r(G)p.r(G)p.r(U)p.d(G)p.d(C)}$$$RNA1{StrandType:ss}|RNA2{StrandType:as}$”, 11%.
With “RNA1{r(U)p.r(C)p.r(U)p.r(G)p.r(U)p.r(G)p.r(A)p.r(U)p.r(G)p.r(U)p.r(A)p.r(C)p.r(C)p.r(C)p.r(U)p.r(A)p.r(C)p.r(C)p.r(U)p.d(T)p.d(T)}|RNA2{r(A)p.r(G)p.r(G)p.r(U)p.r(A)p.r(G)p.r(G)p.r(G)p.r(U)p.r(A)p.r(C)p.r(A)p.r(U)p.r(C)p.r(A)p.r(C)p.r(A)p.r(G)p.r(A)p.d(A)p.d(C)}$$$RNA1{StrandType:ss}|RNA2{StrandType:as}$”, the normalised inhibition (eCFP-eYFP dual reporter) amounted to 55.2%.
The result for “RNA1{r(G)p.r(C)p.r(U)p.r(G)p.r(C)p.r(C)p.r(U)p.r(G)p.r(G)p.r(C)p.r(C)p.r(C)p.r(U)p.r(G)p.r(C)p.r(C)p.r(A)p.r(C)p.r(U)p.d(T)p.d(T)}|RNA2{r(A)p.r(G)p.r(U)p.r(G)p.r(G)p.r(C)p.r(A)p.r(G)p.r(G)p.r(G)p.r(C)p.r(C)p.r(A)p.r(G)p.r(G)p.r(C)p.r(A)p.r(G)p.r(C)p.d(C)p.d(T)}$$$RNA1{StrandType:ss}|RNA2{StrandType:as}$” reads 64.3%.
The value for “RNA1{r(G)p.r(U)p.r(G)p.r(A)p.r(G)p.r(G)p.r(A)p.r(C)p.r(U)p.r(C)p.r(A)p.r(G)p.r(G)p.r(C)p.r(G)p.r(U)p.r(G)p.r(A)p.r(A)p.d(T)p.d(T)}|RNA2{r(U)p.r(U)p.r(C)p.r(A)p.r(C)p.r(G)p.r(C)p.r(C)p.r(U)p.r(G)p.r(A)p.r(G)p.r(U)p.r(C)p.r(C)p.r(U)p.r(C)p.r(A)p.r(C)p.d(C)p.d(A)}$$$RNA1{StrandType:ss}|RNA2{StrandType:as}$” was 89.4%; that for “RNA1{r(G)p.r(G)p.r(A)p.r(A)p.r(A)p.r(C)p.r(A)p.r(C)p.r(U)p.r(C)p.r(U)p.r(A)p.r(G)p.r(G)p.r(C)p.r(C)p.r(A)p.r(U)p.r(G)p.d(T)p.d(T)}|RNA2{r(C)p.r(A)p.r(U)p.r(G)p.r(G)p.r(C)p.r(C)p.r(U)p.r(A)p.r(G)p.r(A)p.r(G)p.r(U)p.r(G)p.r(U)p.r(U)p.r(U)p.r(C)p.r(C)p.d(T)p.d(G)}$$$RNA1{StrandType:ss}|RNA2{StrandType:as}$” was 89.7%.
“RNA1{r(U)p.r(U)p.r(U)p.r(A)p.r(C)p.r(C)p.r(U)p.r(U)p.r(C)p.r(A)p.r(C)p.r(G)p.r(A)p.r(C)p.r(U)p.r(C)p.r(U)p.r(A)p.r(A)p.d(T)p.d(T)}|RNA2{r(U)p.r(U)p.r(A)p.r(G)p.r(A)p.r(G)p.r(U)p.r(C)p.r(G)p.r(U)p.r(G)p.r(A)p.r(A)p.r(G)p.r(G)p.r(U)p.r(A)p.r(A)p.r(A)p.d(A)p.d(T)}$$$RNA1{StrandType:ss}|RNA2{StrandType:as}$”: the normalised inhibition (eCFP-eYFP dual reporter) is 110%.
The result for “RNA1{r(G)p.r(G)p.r(A)p.r(G)p.r(A)p.r(C)p.r(U)p.r(G)p.r(G)p.r(A)p.r(A)p.r(A)p.r(G)p.r(C)p.r(U)p.r(G)p.r(U)p.r(C)p.r(C)p.d(T)p.d(T)}|RNA2{r(G)p.r(G)p.r(A)p.r(C)p.r(A)p.r(G)p.r(C)p.r(U)p.r(U)p.r(U)p.r(C)p.r(C)p.r(A)p.r(G)p.r(U)p.r(C)p.r(U)p.r(C)p.r(C)p.d(G)p.d(G)}$$$RNA1{StrandType:ss}|RNA2{StrandType:as}$” reads 88.7%; that for “RNA1{r(G)p.r(A)p.r(G)p.r(U)p.r(G)p.r(C)p.r(C)p.r(A)p.r(G)p.r(A)p.r(U)p.r(G)p.r(U)p.r(U)p.r(G)p.r(C)p.r(A)p.r(G)p.r(A)p.d(T)p.d(T)}|RNA2{r(U)p.r(C)p.r(U)p.r(G)p.r(C)p.r(A)p.r(A)p.r(C)p.r(A)p.r(U)p.r(C)p.r(U)p.r(G)p.r(G)p.r(C)p.r(A)p.r(C)p.r(U)p.r(C)p.d(C)p.d(A)}$$$RNA1{StrandType:ss}|RNA2{StrandType:as}$”, 104%.
With “RNA1{r(U)p.r(C)p.r(A)p.r(C)p.r(G)p.r(A)p.r(C)p.r(U)p.r(C)p.r(U)p.r(A)p.r(A)p.r(A)p.r(A)p.r(C)p.r(A)p.r(A)p.r(A)p.r(G)p.d(T)p.d(T)}|RNA2{r(C)p.r(U)p.r(U)p.r(U)p.r(G)p.r(U)p.r(U)p.r(U)p.r(U)p.r(A)p.r(G)p.r(A)p.r(G)p.r(U)p.r(C)p.r(G)p.r(U)p.r(G)p.r(A)p.d(A)p.d(G)}$$$RNA1{StrandType:ss}|RNA2{StrandType:as}$”, the normalised inhibition (eCFP-eYFP dual reporter) is 108%.
